Assay results published in patent publication US10214546B2, “Btk inhibitors” (MERCK SHARP & DOHME CORP., priority 2014, dated 2019).
Where two headings read alike, the source gives them in different places.

Columns and labels:
[1] = test system: adenosine uptake into HeLa cells; assay: [3H]Adenosine uptake assay in HeLa cells; type: cell-based; settings: [3H]adenosine accumulation in HeLa cells, compound range 10 μM to 0.032 nM, read-out: ADU inhibition IC50
Experimental: Compounds are also screened in an adenosine uptake functional cellular assay using the protocol described below:
[^3H]Adenosine Uptake Assay Methods
Adenosine uptake activity was determined by monitoring the accumulation of tritiated adenosine into HeLa cells (ATCC catalog # CCL-2) using a PMT-based radiometric detection instrument. In this assay, the potency (IC50) of each compound was determined from a ten point (1:3 serial dilution; final compound concentration range in assay from 10 µM to […]) titration curve using the following outlined procedure. To each well of a 96-well CytoStar-T scintillating microplate (Perkin Elmer Catalog # RPNQ0163), 25 000 HeLa cells in 100 µL of growth medium comprising: Minimum Essential Media (Life Technologies Catalog #11095-080)+10% (v/v) foetal bovine serum (FBS; Sigma Aldrich Catalog # F2442) was added. These cells were incubated overnight at 37° C. in a humidified atmosphere with 5% (v/v) CO2. After this time the growth medium was removed and replaced with 40 μL assay medium comprising: Hanks balanced salts solution (HBSS; Thermo Fisher Catalog # SH30268.01)+5% (v/v) FBS. Compound stock solutions in DMSO were diluted in assay medium to 2.5× final compound concentration maintaining a constant DMSO concentration of 0.25% (v/v). 40 μL of compound in assay medium was dispensed into individual wells of the Cytostar-T plates and the plates were incubated for 30 minutes under ambient laboratory conditions. Following this incubation, 20 μL of 500 nM [^3H] adenosine (American Radiolabeled Chemicals Inc. […] The amount of radiolabel accumulation was then determined using a Perkin Elmer Topcount NXT microplate reader. In brief, HeLa cells adhere to the bottom of the Cytostar-T plate, uptake of [^3H]adenosine into these cells brings the radiolabel into sufficient proximity to excite the scintillant in the base of the plates. These events are captured by single PMT, time-resolved coincidence counting. IC50 values were determined by 4 parameter robust fit of counts per second values vs. (Log10) compound concentrations.

[2] = target: BTK enzyme (recombinant full-length BTK, hBTK) (Homo sapiens (Human), UniProt Q06187); assay: BTK enzymatic activity LANCE TR-FRET assay; type: biochemical; settings: 50 pM hBTK, 25 μM ATP, 2 μM biotin-A5-peptide; compound range 1 μM to 0.017 nM; read-out: BTK binding IC50
Experimental: Btk Enzyme Activity Assay Methods
BTK enzymatic activity was determined with the LANCE (Lanthanide Chelate Excite) TR-FRET (Time-resolved fluorescence resonance energy transfer) assay. […] Phosphorylation reactions were allowed to proceed for 120 minutes. […] After 60 minutes incubation with detection reagents, reaction plates were read on a PerkinElmer EnVision plate reader using standard TR-FRET protocol. […] IC50 values were determined by 4 parameter robust fit of TR-FRET ratio values vs. (Log10) compound concentrations.

Chain of BTK enzyme (recombinant full-length BTK, hBTK) (Q06187 whole entry): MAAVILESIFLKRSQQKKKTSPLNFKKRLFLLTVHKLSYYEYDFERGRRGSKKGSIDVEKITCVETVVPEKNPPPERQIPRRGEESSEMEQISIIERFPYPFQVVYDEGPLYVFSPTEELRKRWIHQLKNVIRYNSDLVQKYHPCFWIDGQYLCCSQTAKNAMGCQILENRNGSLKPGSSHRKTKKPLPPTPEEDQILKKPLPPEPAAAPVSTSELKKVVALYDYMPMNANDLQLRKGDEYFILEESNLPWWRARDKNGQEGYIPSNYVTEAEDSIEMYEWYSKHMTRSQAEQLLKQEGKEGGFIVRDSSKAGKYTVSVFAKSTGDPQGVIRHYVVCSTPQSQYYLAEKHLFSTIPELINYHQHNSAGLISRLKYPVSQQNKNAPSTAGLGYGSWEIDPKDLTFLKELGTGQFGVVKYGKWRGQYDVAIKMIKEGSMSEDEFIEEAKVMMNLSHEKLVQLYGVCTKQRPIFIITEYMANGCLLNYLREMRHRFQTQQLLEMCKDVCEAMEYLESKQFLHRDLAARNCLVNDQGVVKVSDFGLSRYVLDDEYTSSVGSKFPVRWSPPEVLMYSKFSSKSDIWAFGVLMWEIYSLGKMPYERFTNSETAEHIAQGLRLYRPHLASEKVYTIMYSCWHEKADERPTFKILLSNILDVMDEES

Compound	IC50 [1] [nM]	IC50 [2] [nM]	IC50 ([1]; Homo sapiens, HeLa) [nM]
COc1cc(C(O)(c2cccc(C(F)(F)F)c2)C(F)(F)F)ccc1-c1nc([C@@H]2CC[C@H]3CCC(=O)N3C2)n2ccnc(N)c12 (single isomer, unassigned) [Example 10]	2160	496	–
COc1cc([C@](C)(O)c2cccc(C(F)(F)F)c2)ccc1-c1nc([C@@H]2CC[C@H]3CCC(=O)N3C2)n2ccnc(N)c12 [Example 142, (6R,8aS)-6-[8-amino-1-(4-{(1R)-1-hydroxy-1-[3-(trifluoromethyl)phenyl]ethyl}-2-methoxyphenyl)imidazo [1,5-a]pyrazin-3-yl]hexahydroindolizin-3(2H)-one]	–	2	7160
C[C@](O)(c1cccc(C(F)(F)F)c1)c1ccc(-c2nc([C@@H]3CC[C@H]4CCC(=O)N4C3)n3ccnc(N)c23)c(F)c1 [Example 101, (6R,8aS)-6-[8-amino-1-(2-fluoro-4-{(1S)-1-hydroxy-1-[3-(trifluoromethyl)phenyl]ethyl}phenyl)imidazo [1,5-a]pyrazin-3-yl]hexahydroindolizin-3(2H)-one]	–	774	371
COc1cc(C(O)(c2cccc(C(F)F)c2)C(F)(F)F)ccc1-c1nc([C@@H]2CC[C@H]3CCC(=O)N3C2)n2ccnc(N)c12 (stereo partly drawn) [Example 210, (6R,8aS)-6-[8-amino-1-(4-{1-[3-(difluoromethyl)phenyl]-2,2,2-trifluoro-1-hydroxyethyl}-2-methoxyphenyl)imidazo [1,5-a]pyrazin-3-yl]hexahydroindolizin-3(2H)-one]	2700	67	–
CC(O)(c1ccc(-c2nc([C@@H]3CC[C@H]4CCC(=O)N4C3)n3ccnc(N)c23)cc1)c1cc(C(F)(F)F)cc(C(F)(F)F)c1 (stereo partly drawn) [Example 146, (6R,8aS)-6-[8-amino-1-(4-{1-[3,5-bis(trifluoromethyl)phenyl]-1-hydroxyethyl}phenyl)imidazo[1,5-a]pyrazin-3-yl]hexahydroindolizin-3(2H)-one]	–	752	1490
C[C@@](O)(c1ccc(-c2nc([C@@H]3CC[C@H]4CCCN4C3)n3ccnc(N)c23)cc1)c1cccc(C(F)(F)F)c1 [Example 62, (1R)-1-(4-{8-amino-3-[(6R,8aS)-octahydroindolizin-6-yl]imidazo[1,5-a]pyrazin-1-yl}phenyl)-1-[3-(trifluoromethyl)phenyl] ethanol]	–	19.7	2300
Nc1nccn2c([C@@H]3CC[C@H]4CCC(=O)N4C3)nc(-c3ccc(C(O)(c4ccc(F)cc4)C(F)(F)F)cc3)c12 (stereo partly drawn) [Example 32, (6R,8aS)-6-(8-amino-1-{4-[2,2,2-trifluoro-1-(4-fluorophenyl)-1-hydroxyethyl]phenyl}imidazo[1,5-a]pyrazin-3-yl)hexahydroindolizin-3(2H)-one]	–	161	–
Nc1nccn2c([C@@H]3CC[C@H]4CCC(=O)N4C3)nc(-c3ccc(C(O)(c4ccc(C(F)(F)F)cc4)C(F)(F)F)cc3)c12 (stereo partly drawn) [Example 28, (6R,8aS)-6-[8-amino-1-(4-{2,2,2-trifluoro-1-hydroxy-1-[4-(trifluoromethyl)phenyl]ethyl}phenyl)imidazo [1,5-a]pyrazin-3-yl]hexahydroindolizin-3(2H)-one]	–	792	–

Second part, the molecule after the results:

IC50 [1] [nM]	IC50 [2] [nM]	IC50 ([1]; Homo sapiens, HeLa) [nM]	Compound
–	24.2	1040	C[C@](O)(c1ccc(-c2nc([C@@H]3CC[C@H]4CCC(=O)N4C3)n3ccnc(N)c23)cc1)c1cccc(CC(F)(F)F)c1 [Example 77, (6R,8aS)-6-[8-amino-1-(4-{(1S)-1-hydroxy-1-[3-(2,2,2-trifluoroethyl)phenyl]ethyl}phenyl)imidazo[1,5-a]pyrazin-3-yl]hexahydroindolizin-3(2H)-one]
–	9.8	1240	Nc1nccn2c([C@@H]3CC[C@H]4CCC(=O)N4C3)nc(-c3ccc(C(O)(c4cccc(C(F)(F)F)c4)C(F)(F)F)cc3)c12 (stereo partly drawn) [Example 27, (6R,8aS)-6-[8-amino-1-(4-{2,2,2-trifluoro-1-hydroxy-1-[3-(trifluoromethyl)phenyl]ethyl}phenyl)imidazo [1,5-a]pyrazin-3-yl]hexahydroindolizin-3(2H)-one]
400	1000	–	CCC(O)(c1ccc(-c2nc([C@@H]3CC[C@H]4CCC(=O)N4C3)n3ccnc(N)c23)cc1)c1cccc(C(F)(F)F)c1 (stereo partly drawn) [Example 55, (6R,8aS)-6-[8-amino-1-(4-{1-hydroxy-1-[3-(trifluoromethyl)phenyl]propyl}phenyl)imidazo [1,5-a]pyrazin-3-yl]hexahydroindolizin-3(2H)-one]
–	65.2	3340	C[C@](O)(c1ccccc1)c1ccc(-c2nc([C@@H]3CC[C@H]4CCC(=O)N4C3)n3ccnc(N)c23)cc1 [Example 1, (6R,8aS)-6-(8-amino-1-(4-((S)-1-hydroxy-1-phenylethyl)phenyl)imidazo[1,5-a]pyrazin-3-yl)hexahydroindolizin-3(2H)-one]
985	67.6	–	CC(O)(c1ccc(-c2nc([C@@H]3CC[C@H]4CCC(=O)N4C3)n3ccnc(N)c23)cc1)c1cccc(OC(F)F)c1 (stereo partly drawn) [Example 144, (6R,8aS)-6-[8-amino-1-(4-{1-[3-(difluoromethoxy)phenyl]-1-hydroxyethyl}phenyl)imidazo[1,5-a]pyrazin-3-yl]hexahydroindolizin-3(2H)-one]
–	0.07	1840	C[C@@](O)(c1ccc(-c2nc([C@@H]3CC[C@H]4CCC(=O)N4C3)n3ccnc(N)c23)cc1)c1cccc(C2CC2)c1 [Example 38, (6R,8aS)-6-(8-amino-1-{4-[(1R)-1-(3-cyclopropylphenyl)-1-hydroxyethyl]phenyl}imidazo[1,5-a]pyrazin-3-yl)hexahydroindolizin-3(2H)-one]
–	1000	1220	CC(O)(c1ccc(-c2nc([C@@H]3CC[C@H]4CCC(=O)N4C3)n3ccnc(N)c23)cc1)c1cc(C(F)(F)F)ccc1F (stereo partly drawn) [Example 145, (6R,8aS)-6-[8-amino-1-(4-{1-[2-fluoro-5-(trifluoromethyl)phenyl]-1-hydroxyethyl}phenyl)imidazo[1,5-a]pyrazin-3-yl]hexahydroindolizin-3(2H)-one]
–	0.62	3480	C[C@](O)(c1ccc(-c2nc([C@@H]3CC[C@H]4CCC(=O)N4C3)n3ccnc(N)c23)cc1)c1cccc(C(F)(F)F)c1 [Example 4, (6R,8aS)-6-(8-amino-1-(4-((S)-1-hydroxy-1-(3-(trifluoromethyl)phenyl)ethyl)phenyl)imidazo[1,5-a]pyrazin-3-yl)hexahydroindolizin-3(2H)-one]
–	359	10000	CC(O)(c1ccc(-c2nc([C@@H]3CC[C@H]4CCC(=O)N4C3)n3ccnc(N)c23)cc1)c1cccnc1 (stereo partly drawn) [Example 18, (6R,8aS)-6-{8-amino-1-[4-(1-hydroxy-1-pyridin-3-ylethyl)phenyl]imidazo[1,5-a]pyrazin-3-yl}hexahydroindolizin-3(2H)-one]
–	0.27	1760	CC(C)(C)c1cccc([C@](C)(O)c2ccc(-c3nc([C@@H]4CC[C@H]5CCC(=O)N5C4)n4ccnc(N)c34)cc2)c1 [Example 40, (6R,8aS)-6-(8-amino-1-{4-[(1R)-1-(3-tert-bulylphenyl)-1-hydroxyethyl]phenyl}imidazo[1,5-a]pyrazin-3-yl)hexahydroindolizin-3(2H)-one]
–	3.5	–	CC(O)(c1ccccc1)c1ccc(-c2nc([C@@H]3CC[C@H]4CCC(=O)N4C3)n3ccnc(N)c23)cc1 (stereo partly drawn) [Example 23, (6R,8aS)-6-{8-amino-1-[4-(1-hydroxy-1-phenylethyl)phenyl]imidazol[1,5-a]pyrazin-3-yl}hexahydroindolizin-3(2H)-one]
